Measurements from US20240157166A1, “ALTERNATING MAGNETIC FIELDS AND ANTIBIOTICS TO ERADICATE BIOFILM ON METAL IN A SYNERGISTIC FASHION” (priority 2021, published 2024).
≈ marks a conversion by molar mass, not a printed value.

What was measured:
[1] = system: S. aureus (UAMS1); test: Minimum inhibitory concentration, S. aureus UAMS1; type: cell-based; conditions: Staphylococcus aureus; strain UAMS1
[2] = system: S. aureus (UAMS1) biofilm; test: Biofilm CFU on stainless-steel rings, antibiotic with or without iAMF, UAMS1; type: cell-based; conditions: for CFU at 24 h, iAMF and antibiotic versus antibiotic alone: antibiotic 2 μg/mL, iAMF Tmax=65 °C, 15 min per dose at 0 and 12 h
Experimental: Biofilm preparation, treatment and quantification.
Doses were delivered at 0 and 12 hours and ring biofilm burden was quantified at various time points as above. For S. aureus experiments, biofilm of UAMS1 were prepared on stainless steel rings according to the culturing protocol and incubated with 2 μg/mL of ceftriaxone or 2 μg/mL of linezolid, in 10 mL TSB media. […] Doses were delivered at 0 and 12 hours and biofilm burden was quantified at 24 hours.

[3] = system: P. aeruginosa (MB699) biofilm; test: Scanning electron microscopy of MB699 biofilm; type: cell-based; conditions: 64 μg/mL; for bacterial morphology by SEM, antibiotic alone: 12 h, no iAMF; for bacterial morphology by SEM, iAMF and antibiotic: 12 h post iAMF (Tmax=65 °C, Nexp=12)
Experimental: […]. The rings were carefully transferred to 4 mL PBS, rinsed in 4 mL of 0.1 M sodium cacodylate buffer three times and fixed for 24 h in 4 mL of 2% glutaraldehyde, 2% paraformaldehyde in 0.1 M sodium cacodylate buffer. After rinsing in 4 mL of cacodylate buffer three times, the samples were re-fixed in 4 mL of 2% osmium in 0.1 M sodium cacodylate buffer for 2 h. Then the rings were further rinsed with 4 mL of deionized water five times and dehydrated at room temperature in five steps by placing the rings in 4 mL of 50, 70 (twice), 85, 95 (twice) and 100% ethanol respectively for 5 min per solution. The rings were then transferred to 4 mL of 25, 50, 75 and 100% (twice) hexamethyldisilazane (HMDS) in ethanol consecutively for 15 min each. Finally, the samples were left to dry for 24 h in a fume hood. The specimens were mounted on aluminum stubs, gold/palladium sputter coated, and examined using a Zeiss Sigma VP scanning electron microscope. The images were acquired at 10 kV with magnification of approximately 35000×.

[4] = system: GFP-PAO1 biofilms; test: Laser scanning confocal microscopy of GFP-PAO1 biofilm; conditions: 0.5 μg/mL
Text: After staining, rings were mounted on a 50 mm glass bottom plate and images were captured with a Zeiss LSM880 Airyscan laser confocal microscope. The GFP-PA01 bacteria and ConA-stained EPS were imaged using a 40× objective lens. Multiple regions of the ring surface were randomly selected, and Z-stacks were acquired with slice step size of 0.5 μm. Before image processing, the z-stacks were deconvolved using Autoquant×3 (Media Cybernetics, MD, USA) to improve the image resolution in X, Y and Z directions. The deconvolved images were analyzed with Imaris x64 9.1.2 (Bitplane AG, Zurich, Switzerland).

[5] = system: MDR P. aeruginosa (MB699) biofilm; test: Biofilm CFU on rings, antibiotic with or without iAMF, MDR strain MB699; conditions: for CFU reduction with iAMF at other antibiotic concentrations: meropenem sub-MIC 32 μg/mL, ciprofloxacin increased concentration (128 μg/ml), 48 h
[6] = system: MDR P. aeruginosa (MB699); test: microbe, parasite or virus in culture; conditions: Pseudomonas aeruginosa, read-out: minimum inhibitory concentration (MIC)

MIC [1]	SMILES	CFU at 24 h, iAMF and antibiotic versus antibiotic alone [2]	bacterial morphology by SEM, antibiotic alone [3]	bacterial morphology by SEM, iAMF and antibiotic [3]	CFU reduction with iAMF at other antibiotic concentrations [5]	also measured
2 µg/mL (≈ 3.61 µM)	CO/N=C(\C(=O)N[C@@H]1C(=O)N2C(C(=O)O)=C(CSc3nc(=O)c(=O)[nH]n3C)CS[C@H]12)c1csc(N)n1 [ceftriaxone]	significantly lower CFU	–	–	–	CFU after 24 h ([2]; 2 μg/mL ceftriaxone in combination with iAMF (doses at 0 and 12 h)): approaching the limit of detection; CFU reduction after 24 h ([2]; ceftriaxone alone, 2 μg/mL): ~2 log; initial decrease of biofilm CFU ([2]; iAMF (Tmax=65 °C, 15 min dose) and 2 μg/mL ceftriaxone, after first dose): over 3 logs
2 µg/mL (≈ 5.93 µM)	CC(=O)NC[C@H]1CN(c2ccc(N3CCOCC3)c(F)c2)C(=O)O1 [linezolid]	significantly lower CFU	–	–	–	magnitude of biofilm reduction, 7-day versus 2-day biofilm ([2]; iAMF (Tmax=65 °C, 15 min per dose) and 2 μg mL-1 linezolid): no significant difference
–	O=C(O)c1cn(C2CC2)c2cc(N3CCNCC3)c(F)cc2c1=O [ciprofloxacin]	–	no obvious morphological changes	slight lengthening of bacteria and increased wrinkling of the membrane	did not lead to enhanced CFU decreases	bacterial morphology by confocal microscopy, ciprofloxacin only ([4]; 12 h post-treatment): slight elongation; EPS staining and morphology by confocal microscopy, iAMF and ciprofloxacin ([4]; iAMF Tmax=65 °C, Nexp=12, 12 h): less dense EPS staining; bacterial burden (CFU) at 48 h with iAMF and antibiotic [5]: did not result in a further reduction of CFU
–	C[C@@H](O)[C@H]1C(=O)N2C(C(=O)O)=C(S[C@@H]3CN[C@H](C(=O)N(C)C)C3)[C@H](C)[C@H]12 [meropenem]	–	no obvious morphological changes	fragmented and deformed bacterial cells	also seen	MIC [6]: 64 µg/mL (≈ 167 µM); interaction of iAMF and antibiotic in MDR strain ([5]; strain with oprD porin and DNA gyrase mutations): synergistic effect
